# Test results as given in patent EP0106571A2, “Prophylactic substance or composition” (priority 1982, dated 1984).
# Read-outs that look alike come from different tables or passages of the source.
# How the values were obtained:
# human cancer cells = experiment: Proliferation suppressive effect of prostaglandins (statement, no method); assay type: cell-based; conditions: compared with PGEI; no conditions given
# [1] = test system: Human osteogenic sarcoma cells; experiment: Colony growth over three weeks with fatty acids or prostaglandins, Amidoschwarz stain; assay type: cell-based; conditions: for colonies in supplemented cultures: 20 µg/ml of medium added every second day, 500, 1,000 and 2,000 cell density cultures
# Method: Human osteogenic sarcoma cells were seeded into 50 ml Greiner plastic flasks and maintained exactly as explained in Example 4.
# At the end of three weeks the culture flasks were stained with a 0.1% Amidoschwarz stain solution.
# [2] = test system: MG63 Human osteogenic sarcoma cells; experiment: Colony formation after 7 days with two additions of fatty acid; assay type: cell-based; conditions: for proliferation suppressive action: higher levels of supplementation, 80 and 100µg/ml; for suppressive action on proliferation and colony formation: dose series 5 to 100 µg/ml; for cell growth and colony formation: levels of supplementation above 40 µg/ml culture medium; for cells or colonies found on microscopic examination: supplementation levels between 40 and 100 µg/ml
# Method: MG63 Human osteogenic sarcoma cells were seeded in culture flasks as described in Examples 4 and 5. 2,000 cells were seeded in each flask. Duplicate sets of flasks were used for each of the fatty acids tested. The following fatty acids dissolved in standard growth medium were added to the cells in culture, after allowing 2 days for cell attachment, and again after a further 3 days. Each culture therefore had only 2 additions of the relevant fatty acid. The cells were stained and examined at the end of 7 days in culture: • 1. Culture medium only - control. • 2. 5, 10, 20, 40, 60, 80 and 100µg oleic acid respectively /ml culture medium. […] 5; 10, 20, 40, 60, 80 and 100µg LA respectively /ml culture medium. • 4. 5, 10, 20, 40, 60, 80 and […] ALA respectively ./ml culture. medium. • 5. 5, 10, 20, 40, 60, 80 and 100µg/ml AA respectively /ml culture medium. • 6. 5, 10, 20, 40, 60, 80 and 100µg/ml EPA respectively /ml culture medium. • ..7.
# BL6 mouse melanoma cells [3] = conditions: GLA 20 µg/ml daily for two weeks
# Method: Only 20µI of the sodium carbonate vehicle was added to control flasks.
# Malignant BL6 mouse melanoma cells were maintained in Griener plastic flasks (Labortechnik) containing 10% fetal calf serum (Flor Laboratories) and antibiotics. Stock cultures were refed twice weekly and were subcultured at. weekly intervals or sooner if required. The BL6 mouse melanoma cells were supplied by Dr. C. Albrecht, Department of Pharmacology, University of Stellenbosch, South Africa.
# Duplicates were set up for the three densities.
# The culture flasks were incubated in a humidified atmosphere of 5% C02, 95% air at 37°C. At the end of the two weeks period the culture flasks were stained using a 0.1% Amidoschwarz stain solution.
# BL6 mouse melanoma cells [4] = experiment: cells
# Method: (§1) Thus each culture set comprised 13 separate experiments. […] Each set of dosages was duplicated for both cell lines. Thus, a total of 280 separate cultures were used for these determinations. For statistical treatment an average value of each duplicate was used as n = I. • (i) Growth Curves Protocol: The cells were seeded in a standard growth medium (McCoys 5A medium) from stock cultures into Greiner 50 ml plastic flasks at subconfluent densities ranging from I x 10^5 cells/flask.
# Plates were incubated in a 5% C02 humidified atmosphere at 37 °C. For the final 24 hours, 0.4 µCl of [6^-3H]-thymidine or I µCl of L-[methyl -^3H] -methionine (New England Nuclear, Boston, Mass) was added to each incubation mixture on the micrplate. The cells were then collected using a Skatron automatic harvester onto glass fibre reinforced resin filters. The filters were dried and dissolved in 10 ml Picofluor ^TM30 (Packard). The [6-^3H] -thymidine incorporation into DNA and the L-[methyl-^3H] -methionine incorporation into proteins was counted on a Packard Tri-Carb scintillation counter.
# [5] = test system: MG63 osteoid-sarcoma cells; conditions: for Cell count (x 10^6) + GLA Mean: MG63, seeding density 0,3, daily GLA, n = 4
# From the text: (§2) Cells: MG63. osteoid-sarcoma cells were obtained from Flow Laboratories. Oesophageal carcinoma cells were obtained from Prof. J. Alexander of the Department of Microbiology at Medunsa, South Africa. Control benign bovine kidney cells (MDBK) were from the same stock that were used in the previous examples.
# [6] = test system: benign bovine kidney cells (MDBK); conditions: for Cell count (x 10^6) + GLA Mean: MDBK, seeding density 0,3, daily GLA, n = 4
# From the text: as §2
# [7] = test system: Oesophageal carcinoma cells; conditions: 10 µg GLA per day for six days; for Cell count (x 10^6) + GLA Mean: Oesophageal Carcinoma, seeding density 0,14, n = 4
# From the text: as §2
# MDBK bovine kidney cells = conditions: any of the GLA doses (0.5 to 10 µg/ml), 7 days
# Method: as §1
# (§3) These cultures flasks were incubated in a humidified atmosphere of 5% C02, 95% air at 37°C for 7 days. After this period cell counts and viabilities were determined, the latter by trypan blue dye exclusion.
# (§4) Data Reduction and Statistical Analyses: Using the values of cell counts obtained as described above, the difference of each cell count from its control was expressed as a perecentage of the control. As the growth curves were repeated several times for each dose for both normal and cancer cells, the mean value and standard error was determined for each dose. […] For the purpose of presentation these percentage differences are expressed as the percentage reduction of growth rate (-GR%).
# BL6 mouse melanoma cells [8] = conditions: GLA doses above 7 µg/ml, single dose, 7 days, plateau of the curve
# Method: as §1, §3, §4
# human hepatoma cells = experiment: cells; conditions: for inhibition at 20 µg/mL: Homo sapiens, read-out: Reduction in growth rate (%), daily GLA 20 µg/ml; for GLA supplemented cell number (x10^4) Mean: daily GLA 20 µg/ml, n = 4
# Method: To control flasks only 20µl of the sodium carbonate vehicle was added.
# Cells: Cells of the human primary carcinoma of the liver line were provided by Dr. J.J. Alexander of the Division of Virology, Department of Microbiology, Medical University of South Africa. These cells were maintained in Grenier plastic flasks in McCoys 5A medium as described in Example I.
# The cells were seeded in the standard growth medium from stock cultures into Greiner 50 ml plastic flasks at subconfluent densities ranging from 2 x 10^5 to 3 x 10^5 cells per flask. […] These culture flasks were included in a humidified atmosphere of 5% CO2, 95% air at 37°. At the end of each experiment the detached, dead cells were discarded with the culture medium. The living attached cells were trypsinised and then counted using a Coulter counter. Cell viability was checked by trypan blue dye exclusion. In addition, the culture flasks were viewed and photographed daily under a Nikon diaphot inverted phase microscope.
# The cells were counted after 4 days in culture.
# [9] = 5 µg/ml of medium added every second day
# [10] = 20 µg/ml of medium added every second day
structure (smiles),measurement,setting,value
CCCCC[C@H](O)/C=C/[C@@H]1[C@@H](CCCCCCC(=O)O)[C@@H](O)C[C@H]1O [PGF1a],proliferation suppressive effect on human cancer cells,human cancer cells,no effect at all
same,growth achieved relative to control cultures,[1]; [9],about the same growth as the control cultures
same,growth suppressive effect on the cancer cells in culture (summary),[1]; [9],no effect at all
"CCCCC[C@H](O)/C=C/[C@H]1[C@H](O)CC(=O)[C@@H]1CCCCCCC(=O)O [PGE1, prostaglandin E 1]",growth suppressive effect on the cancer cells in culture (summary),[1]; [9],more pronounced growth suppressive effect
same,activity at 5 µg/mL,"[1]; Homo sapiens, 504 h, 5 µg/ml of medium added every second day, read-out: growth achieved relative to control cultures",~25%
"CCCCC/C=C\C/C=C\CCCCCCCC(=O)O [LA, linoleic acid]",proliferation suppressive action,[2]; 2 additions,definite proliferation suppressive action
same,growth suppressive effect on the cancer cells in culture (summary),[1]; [10],some growth suppressive effect
same,activity at 20 µg/mL,"[1]; Homo sapiens, 504 h, 20 µg/ml of medium added every second day, read-out: growth achieved relative to control cultures",~75%
CCCCC[C@H](O)/C=C/[C@@H]1[C@@H](C/C=C\CCCC(=O)O)[C@@H](O)C[C@H]1O [PGF2a],proliferation suppressive effect on human cancer cells,human cancer cells,no effect at all
"CCCCC/C=C\C/C=C\C/C=C\C/C=C\CCCC(=O)O [AA, arachidonic acid]",suppressive action on proliferation and colony formation,[2]; 2 additions,"almost equal, progressive, suppressive action"
same,cell growth and colony formation,[2]; 2 additions,completely suppressed
same,cells or colonies found on microscopic examination,[2],Not a single cell or colony of cells could be found
same,growth suppressive effect on the cancer cells in culture (summary),[1]; [10],complete growth suppressive effect
same,colonies in supplemented cultures,[1],completely devoid of any colonies
"CCCCC/C=C\C/C=C\C/C=C\CCCCC(=O)O [GLA, gamma linolenic acid]",suppressive action on proliferation and colony formation,[2]; 2 additions,"almost equal, progressive, suppressive action"
same,cell growth and colony formation,[2]; 2 additions,completely suppressed
same,cells or colonies found on microscopic examination,[2],Not a single cell or colony of cells could be found
same,growth and proliferation,BL6 mouse melanoma cells [3],completely suppressed
same,colonies observed,"BL6 mouse melanoma cells [3]; 500, 1,000 or 2,000 cells seeded per flask",not a single colony
same,growth suppressive effect on the cancer cells in culture (summary),[1]; [10],complete growth suppressive effect
same,colonies in supplemented cultures,[1],completely devoid of any colonies
same,inhibition at 10 µg/mL,BL6 mouse melanoma cells [4]; read-out: reduction in methionine uptake,58.9%
same,inhibition at 10 µg/mL,BL6 mouse melanoma cells [4]; read-out: reduction in thymidine uptake,59.1%
same,Cell count (x 10^6) + GLA Mean,[5]; day 2,"0,19 x 10^6"
same,Cell count (x 10^6) + GLA Mean,[5]; day 3,"0,31 x 10^6"
same,Cell count (x 10^6) + GLA Mean,[5]; day 4,"0,48 x 10^6"
same,growth suppressive effect,"[5]; MG63 cells, daily GLA supplementation, over seven days, versus untreated MG63 cells, 10080 min",76%
same,mean number of GLA supplemented cells compared with unsupplemented cells,"[6]; MDBK cells, end of the seven day period",exceed
same,Cell count (x 10^6) + GLA Mean,[6]; day 2,"0,43 x 10^6"
same,Cell count (x 10^6) + GLA Mean,[6]; day 3,"0,70 x 10^6"
same,Cell count (x 10^6) + GLA Mean,[6]; day 6,"1,53 x 10^6"
same,Cell count (x 10^6) + GLA Mean,[6]; day 7,"1,81 x 10^6"
same,Cell count (x 10^6) + GLA Mean,[7]; day 2,"0,14 x 10^6"
same,Cell count (x 10^6) + GLA Mean,[7]; day 3,"0,22 x 10^6"
same,Cell count (x 10^6) + GLA Mean,[7]; day 4,"0,31 x 10^6"
same,Cell count (x 10^6) + GLA Mean,[7]; day 5,"0,68 x 10^6"
same,Cell count (x 10^6) + GLA Mean,[7]; day 6,"0,63 x 10^6"
same,Cell count (x 10^6) + GLA Mean,[7]; day 7,"1,82 x 10^6"
same,Cell count (x 10^6) + GLA Mean,[7]; day 8,2.04 x 10^6
same,growth suppressive effect,"[7]; oesophageal carcinoma cells, end of the eight day period, 11520 min",69%
same,response of growth rate to GLA,MDBK bovine kidney cells,no apparent response
same,percentage reduction of growth rate (-GR%),BL6 mouse melanoma cells [8],about 70%
same,inhibition at 20 µg/mL,"human hepatoma cells; 24 h, day 1, versus control flasks (negative = more cells than control)",-44%
same,inhibition at 20 µg/mL,"human hepatoma cells; 48 h, day 2, versus control flasks",66%
same,inhibition at 20 µg/mL,"human hepatoma cells; 72 h, day 3, versus control flasks",78%
same,inhibition at 20 µg/mL,"human hepatoma cells; 96 h, day 4 Run 1, versus control flasks",87%
same,inhibition at 20 µg/mL,"human hepatoma cells; 96 h, day 4 Run 2, versus control flasks",78%
same,GLA supplemented cell number (x10^4) Mean,human hepatoma cells; day 1,"8,12 x10^4"
same,GLA supplemented cell number (x10^4) Mean,human hepatoma cells; day 2,"3,79 x10^4"
same,GLA supplemented cell number (x10^4) Mean,human hepatoma cells; day 3,"3,35 x10^4"
same,GLA supplemented cell number (x10^4) Mean,human hepatoma cells; day 4 Run 1,"2,96 x10^4"
same,GLA supplemented cell number (x10^4) Mean,human hepatoma cells; day 4 Run 2,"7,25 x10^4"
same,difference between growth rates of GLA supplemented and control cells,"human hepatoma cells; single dose of GLA 20 µg/ml on day 1, after four days",no significant difference
same,cell count,"human hepatoma cells; single dose of GLA 20 µg/ml on day 1, counted after four days, n = 8, spread printed ± 4.85",19.81 x 104
CCCCC[C@H](O)/C=C/[C@H]1C=CC(=O)[C@@H]1CCCCCCC(=O)O [PGA1],growth suppressive effect on the cancer cells in culture (summary),[1]; [9],more pronounced growth suppressive effect
"CCCCCCCC/C=C\CCCCCCCC(=O)O [OA, Oleic acid]",densities of colonies,"[2]; all levels of supplementation between 5 and 100µg/ml, 2 additions, compared with culture medium only",equal densities of colonies
same,growth achieved relative to control cultures,[1]; [10],about the same growth as control cultures
same,growth suppressive effect on the cancer cells in culture (summary),[1]; [10],no suppressive effect
"CC/C=C\C/C=C\C/C=C\CCCCCCCC(=O)O [ALA, a-linolenic acid, reference compound]",proliferation suppressive action,[2]; 2 additions,definite proliferation suppressive action
